In PMC5618334, “Hydrocarbon constrained peptides – understanding preorganisation and binding affinity” (Chemical Science, 2016):
Where a SMILES comes first, the peptide text is derived from it. [ ]: non-standard residue; d: D form. Nle = CCCC[C@H](N)C(=O)O

Tests used:
Format in all cases: binding
Bcl-xL/BODIPY-BAK = molecular target: T1, Bcl-xL/BODIPY-BAK (Homo sapiens, UniProt Q07817, DEL26-81); experiment: Fluorescence anisotropy competition assay, inhibition of Bcl-xL/BODIPY-BAK interaction
T1 construct: pET28a His-SUMO Bcl-xL (1-198, missing 26-81); His-SUMO (N, cleaved yes); made in house; host or cells: E. coli Rosetta 2
T1 sequence (Q07817 with tags, fused parts or gaps DEL26-81): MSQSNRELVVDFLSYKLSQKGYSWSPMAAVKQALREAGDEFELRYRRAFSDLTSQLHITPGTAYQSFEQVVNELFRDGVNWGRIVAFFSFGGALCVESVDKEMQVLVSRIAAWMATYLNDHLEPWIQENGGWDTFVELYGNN
Protocol: (§1) To profile the binding behaviour of the constrained peptides we tested them in both competition displacement assays and direct binding assays. […] Of particular interest was the potential for the introduction of a constraint to have differential effects on protein specificity/selectivity. […] We next tested the constrained peptides in inhibition assays (Fig. 3a and b and Table 2). […]
(§2) constructs were over-expressed in the E. coli strain Rosetta 2. Cells were resuspended in 50mM TRIS pH 8.0, 500mM NaCl, 15mM Imidazole and lysed by sonication. The clarified lysate was applied to a 5ml HisTrap column equilibrated with 50mM TRIS pH 8.0, 500mM NaCl, 15mM Imidazole. The HisTrap was then washed with 10 CV of 50mM TRIS pH 8.0, 500mM NaCl, 15mM Imidazole followed by 10 CV 50mM TRIS pH 8.0, 500mM NaCl, 25mM Imidazole. The fusion proteins were eluted in 50mM TRIS pH 8.0, 500mM NaCl, 300mM Imidazole. TheHis-SUMO tag was removed in overnight in dialysis into 50mM TRIS pH 8.0, 250mM NaCl in the presence of Smt3 protease, Ulp1, overnight at 4°C. Uncleaved material and His-SUMO were removed by reapplication of the sample to a HisTrap in 50mM TRIS pH 8.0, 250mM NaCl and the flow through containing Mcl- […]
(§3) The proteins were then filtered before further purification on a Superdex 75 (GE […]
(§4) proteins were concentrated and stored at -80°C.
(§5) The assays were performed as detailed in 10, 11.
(§6) The buffers used for fluorescence anisotropy were either phosphate buffer (40 mM sodium phosphate, 200 mM sodium chloride, 0.02 mg ml-1 bovine serum albumin, pH 7.50) or Tris buffer (50 mM Tris, 140 mM sodium chloride, pH 7.50). Phosphate buffer was used for all competition assays […]
(§7) Assays were run in 96 or 384 well Optiplates and were scanned using a Perkin Elmer EnVisionTM 2103 MultiLabel plate reader. Fluorescein labelled peptides used an excitation and emission wavelength of 480 (30) nm and 535 (40) nm respectively (dichroic mirror 505 nm) whilst BODIPY labelled peptides used an excitation and emission wavelength of 531 (25) nm and 595 (60) nm respectively (dichroic mirror 555 nm), […]
(§8) Plates were read after 1 h […]
(§9) respectively. Plates were read after 1 h. […]
(§10) Processing of fluorescence anisotropy data
(§11) Fluorescence anisotropy data was processed using Microsoft Excel to calculate intensity, anisotropy […]
(§12) b (λ(rmax − r) + r − rmin) r = anisotropy, I = total intensity, P = perpendicular intensity, S = parallel intensity, Lb = fraction ligand bound, λ = Ibound/Iunbound , G = 1= instrumental factor. […]
(§13) the calculation of IC50 and EC50) or to the Kd model for the extraction of Kd values:
(§14) Where for the logisitic model; y = r = anisotropy, xo = mid-point of the curve between the rmax and rmin […]
(§15) For the Kd model; y = Lb*[FL], K = Kd, [FL] = Concentration of fluorescent ligand.

Bcl-xL = molecular target: T2, Bcl-xL (Homo sapiens, UniProt Q07817, DEL26-81); experiment: Surface plasmon resonance (SPR), peptides flowed over immobilised His-SUMO Bcl-xL; details: SPR Biacore 3000, His-SUMO Bcl-xL on Ni-NTA chip, PBS with 0.01 mg/mL BSA, 0.1% Tween 20, 1:1 model, average of at least 3 data sets; for Kd: read-out: Bcl-xL K d; for koff: read-out: Bcl-xL k off; for kon: read-out: Bcl-xL k on
T2 construct: pET28a His-SUMO Bcl-xL (1-198, missing 26-81); made in house; host or cells: E. coli Rosetta 2
T2 sequence (Q07817 with tags, fused parts or gaps DEL26-81): as above
Protocol: To investigate how the hydrocarbon constraint affects binding kinetics, we established a surface plasmon resonance (SPR) based assay. […] BID-WT and BID-MM were then flowed over the immobilised protein. […] These experiments were repeated for the BIM series of peptides.
SPR of BIM series of peptides
The binding kinetics and affinities were analysed by SPR (Biacore 3000). […]
immobilised on an Ni-NTA chip non-covalently in PBS with 0.01mg/ML BSA and 0.1% Tween 20 […]
(Running buffer). […] For the […]
the peptides were diluted into running buffer. Experiments were run at 40ul/min in running buffer.
20 minute dissociation period. The binding kinetic parameters were evaluated with BIA-Evaluation software (BIAcore 3000) in which all data sets were fit to a simple 1:1 (Langmuir) binding model. […]
(1 picture or pasted object on this page, not shown here)

Mcl-1/FITC-NOXA-B = molecular target: T3, Mcl-1/FITC-NOXA-B (Homo sapiens, UniProt Q07820); experiment: Fluorescence anisotropy competition assay, inhibition of Mcl-1/FITC-NOXA-B interaction
T3 construct: His-SUMO (N, cleaved yes); made in house; host or cells: E. coli Rosetta 2
T3 sequence (Q07820 172-327): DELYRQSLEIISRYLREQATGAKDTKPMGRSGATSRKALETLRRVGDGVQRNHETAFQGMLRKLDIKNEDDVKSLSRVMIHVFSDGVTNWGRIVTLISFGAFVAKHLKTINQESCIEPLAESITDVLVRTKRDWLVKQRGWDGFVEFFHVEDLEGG
Protocol: as §1, §2, §3, §4, §5, §6, §7, §8, §9, §10, §11, §12, §13, §14, §15

SMILES | IC50 (Bcl-xL/BODIPY-BAK) | Kd (Bcl-xL) | koff (Bcl-xL) | kon (Bcl-xL) | IC50 (Mcl-1/FITC-NOXA-B)
CCCC[C@H](NC(=O)[C@]1(C)CCCC=CCCC[C@](C)(NC(=O)[C@H](C)NC(=O)[C@H](CC(C)C)NC(=O)[C@H](Cc2c[nH]cn2)NC(=O)[C@H](CCCNC(=N)N)NC(=O)[C@H](C)NC(=O)[C@@H](NC(=O)[C@H](CC(N)=O)NC(=O)[C@H](CCCNC(=N)N)NC(=O)[C@@H](NC(=O)[C@@H](NC(=O)[C@H](CC(=O)O)NC(=O)[C@H](CCC(=O)O)NC(C)=O)[C@@H](C)CC)[C@@H](C)CC)[C@@H](C)CC)C(=O)N[C@@H](C(C)C)C(=O)NCC(=O)N[C@@H](CC(=O)O)C(=O)N1)C(=O)N[C@@H](CC(=O)O)C(=O)N[C@@H](CCCNC(=N)N)C(=O)N[C@@H](CO)C(=O)N[C@H](C(=O)N[C@@H](Cc1c[nH]c2ccccc12)C(N)=O)[C@@H](C)CC [BID-DM] | 1140 ± 40 nM | 178 ± 52 nM | 0.003 s⁻¹ | 17500 M⁻¹ s⁻¹ | 800 ± 70 nM
CCCC[C@H](NC(=O)[C@@H]1CCC/C=C\CCC[C@H](NC(=O)[C@H](C)NC(=O)[C@H](CC(C)C)NC(=O)[C@H](Cc2c[nH]cn2)NC(=O)[C@H](CCCNC(=N)N)NC(=O)[C@H](C)NC(=O)[C@@H](NC(=O)[C@H](CC(N)=O)NC(=O)[C@H](CCCNC(=N)N)NC(=O)[C@@H](NC(=O)[C@@H](NC(=O)[C@H](CC(=O)O)NC(=O)[C@H](CCC(=O)O)NC(C)=O)[C@@H](C)CC)[C@@H](C)CC)[C@@H](C)CC)C(=O)N[C@@H](C(C)C)C(=O)NCC(=O)N[C@@H](CC(=O)O)C(=O)N1)C(=O)N[C@@H](CC(=O)O)C(=O)N[C@@H](CCCNC(=N)N)C(=O)N[C@@H](CO)C(=O)N[C@H](C(=O)N[C@@H](Cc1c[nH]c2ccccc12)C(N)=O)[C@@H](C)CC [BID-MM] | 620 ± 20 nM | 107 ± 29 nM | 0.003 s⁻¹ | 31000 M⁻¹ s⁻¹ | 1600 ± 120 nM
CCCC[C@H](NC(=O)[C@H](CO)NC(=O)[C@H](CC(=O)O)NC(=O)CNC(=O)[C@@H](NC(=O)[C@H](CCC(N)=O)NC(=O)[C@H](C)NC(=O)[C@H](CC(C)C)NC(=O)[C@H](Cc1c[nH]cn1)NC(=O)[C@H](CCCNC(=N)N)NC(=O)[C@H](C)NC(=O)[C@@H](NC(=O)[C@H](CC(N)=O)NC(=O)[C@H](CCCNC(=N)N)NC(=O)[C@@H](NC(=O)[C@@H](NC(=O)[C@H](CC(=O)O)NC(=O)[C@H](CCC(=O)O)NC(C)=O)[C@@H](C)CC)[C@@H](C)CC)[C@@H](C)CC)C(C)C)C(=O)N[C@@H](CC(=O)O)C(=O)N[C@@H](CCCNC(=N)N)C(=O)N[C@@H](CO)C(=O)N[C@H](C(=O)N[C@@H](Cc1c[nH]c2ccccc12)C(N)=O)[C@@H](C)CC [BID-WT, reference compound] (Ac-EDIIRNIARHLAQVGDS[Nle]DRSIW-NH2) | 1440 ± 50 nM | 57 ± 16 nM | 0.01 s⁻¹ | 180000 M⁻¹ s⁻¹ | 390 ± 80 nM
